Experimental data reported in US8344181B2, “N-2 adamantanyl-2-phenoxy-acetamide derivatives as 11-beta hydroxysteroid dehydrogenase inhibitors” (Janssen Pharmaceutica N.V., priority 2004, dated 2013).

What was measured:
11β-HSD1 = target: T1, 11β-HSD1 (Mus musculus, UniProt P50172); test: Cellular assay of 11β-HSD1 activity in differentiated 3T3-L1 cells; assay type: cell-based; details: 4 hour pre-incubation, 10^-5M to 10^-10M, read-out: HSD1 cellular 3T3-L1 Score
T1 construct: endogenous in cells; host or cells: 3T3-L1 (ATCC-CL-173), differentiated into adipocytes
Procedure: The effects on 11β-HSD1 activity was measured in differentiated 3T3-L1 cells and rat hepatocytes.
Mouse fibroblast 3T3-L1 cells (ATCC-CL-173) were seeded at a density of 16500 cells/ml in 12 well plates and grown for 7 days in DMEM medium (supplemented with 10% heat inactivated foetal calf serum, 2 mM glutamine and 25 mg gentamycin) at 37° C. in a humidified 5% CO2 atmosphere. Medium was refreshed twice a week. Fibroblasts were differentiated into adipocytes at 37° C. in a 5% CO2 humidified atmosphere in growth medium containing 2 μg/ml insulin, 55 μg/ml IBMX and 39.2 μg/ml dexamethasone.
Primary hepatocytes from male rats were seeded on normal Falcon 12 well plates at a density of 250000 cells/well and incubated for 16 hours at 37° C. in a 5% CO2 humidified atmosphere in DMEM-HAM's F12 medium containing 5% Nu-serum, 100 U/ml penicillin, 100 μg/ml streptomycin, 0.25 μg/ml amphotericin B, 50 μg/ml gentamycin sulfate, 5 μg/ml insulin and 392 ng/ml dexamethasone. Following a 4 hour pre-incubation with test compound, 0.5 μCi ^3H-cortisone or dehydrocorticosterone, was added to the 3T3-L1 cultures. One hour later, the medium was extracted on Extrelut^3-columns with 15 ml diethyl ether and the extract was analysed by HPLC as described above. The effects of JNJ-compounds on rat hepatocyte HSD1 activity was measured after an incubation period of 90 minutes with 0.5 μCi^3H-dehydrocorticosterone. Corticosterone formation was analysed by HPLC.
(§1) As for the enzymatic assays, the compounds to be tested were taken from a stock solution and tested at a final concentration ranging from 10^−5M to 10^−10M. From the thus obtained dose response curves, the pIC50 value was calculated and scored as follows; Score 1=pIC50 value<5, Score 2=pIC50 value in the range of 5 to 6, Score 3=pIC50 value>6. (in this table NT stands for Not Tested).

11β-HSD2 = target: T2, 11β-HSD2 (Homo sapiens, UniProt P80365); test: Cellular assay of 11β-HSD2 activity in HepG2 cells; assay type: cell-based; details: 4 hour pre-incubation, 10^-5M to 10^-10M, read-out: HSD2 cellular HepG2 Score
T2 construct: endogenous in cells; host or cells: HepG2 (ATCC HB-8065)
T2 sequence (P80365 1-405): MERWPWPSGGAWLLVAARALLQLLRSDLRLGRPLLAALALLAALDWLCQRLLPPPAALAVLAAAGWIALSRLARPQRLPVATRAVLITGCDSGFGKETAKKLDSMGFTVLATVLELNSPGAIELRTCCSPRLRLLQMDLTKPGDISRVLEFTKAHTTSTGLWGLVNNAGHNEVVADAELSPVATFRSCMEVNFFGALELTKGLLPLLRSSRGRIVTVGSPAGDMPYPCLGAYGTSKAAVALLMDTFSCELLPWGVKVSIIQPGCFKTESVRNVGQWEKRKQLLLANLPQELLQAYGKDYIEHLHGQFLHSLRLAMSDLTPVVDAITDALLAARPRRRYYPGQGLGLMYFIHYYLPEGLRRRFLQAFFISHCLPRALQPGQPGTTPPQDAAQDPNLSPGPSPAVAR
Procedure: The effects on 11β-HSD2 activity was studied in HepG2 and LCC-PK1-cells HepG2-cells (ATCC HB-8065) were seeded in 12 well plates at a density of 100,000 cells/ml and grown at 37° C. in a humidified 5% CO2 atmosphere in MEM-Rega-3 medium supplemented with 10% heat inactivated foetal calf serum, 2 mM L-glutamine and sodium bicarbonate). Medium was refreshed twice a week.
Following a 4 hour pre-incubation with test compound, 0.5 μCi ^3H-cortisol or corticosterone, was added to the cultures. One hour later, the medium was extracted on Extrelut^3-columns with 15 ml diethyl ether and the extract was analysed by HPLC as described above.
as §1

T1 sequence (P50172 whole entry): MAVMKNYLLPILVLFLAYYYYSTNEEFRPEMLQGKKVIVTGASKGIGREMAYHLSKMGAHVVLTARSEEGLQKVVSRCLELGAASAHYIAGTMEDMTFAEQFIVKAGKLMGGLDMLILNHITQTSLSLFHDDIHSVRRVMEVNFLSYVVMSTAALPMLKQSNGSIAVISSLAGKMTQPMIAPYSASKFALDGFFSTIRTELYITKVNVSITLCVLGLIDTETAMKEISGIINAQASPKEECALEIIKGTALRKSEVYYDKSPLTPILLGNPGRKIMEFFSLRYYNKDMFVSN

SMILES | IC50 (11β-HSD1) [nM] | IC50 (11β-HSD2) [µM]
Cc1ccccc1NC(C)(C)C(=O)N[C@H]1[C@@H]2CC3C[C@H]1C[C@](F)(C3)C2 [Compound 35] | < 1000 | 1 to 10
Cc1cccc(NC(C)(C)C(=O)N[C@H]2[C@@H]3CC4C[C@H]2C[C@](F)(C4)C3)c1 [Compound 57] | < 1000 | > 10
O=C(N[C@H]1[C@@H]2CC3C[C@H]1C[C@](O)(C3)C2)[C@H]1CCc2cc(F)ccc2O1 [Compound 21] | < 1000 | < 1
Cc1ccc(OC(C)(C)C(=O)N[C@H]2[C@@H]3CC4C[C@H]2C[C@](OC(=O)Nc2cccc(C)c2)(C4)C3)cc1 [Compound 47] | < 1000 | 1 to 10
Cc1cc(Cl)ccc1OC(C)(C)C(=O)N[C@H]1[C@@H]2CC3C[C@H]1C[C@](NS(C)(=O)=O)(C3)C2 [Compound 33] | < 1000 | 1 to 10
Cc1ccc(OC(C)(C)C(=O)N[C@H]2[C@@H]3CC4C[C@H]2C[C@](OC(=O)CN2CCOCC2)(C4)C3)cc1 [Compound 41] | < 1000 | 1 to 10
Cc1cc(Cl)ccc1OC(C)(C)C(=O)N[C@H]1[C@@H]2CC3C[C@H]1C[C@](NC(=O)CC(C)C)(C3)C2 [Compound 64] | < 1000 | 1 to 10
CCOC(=O)N[C@@]12CC3C[C@H](C1)[C@H](NC(=O)C(C)(C)Oc1ccc(Cl)cc1C)[C@@H](C3)C2 [Compound 45] | < 1000 | 1 to 10
Cc1c(C(=O)N[C@H]2[C@@H]3CC4C[C@H]2C[C@](O)(C4)C3)oc2ccccc12 [Compound 7] | < 1000 | > 10
Cc1ccc2c(c1)NCC(C(=O)N[C@H]1[C@@H]3CC4C[C@H]1C[C@](O)(C4)C3)O2 (some centres unmarked) [Compound 11] | < 1000 | 1 to 10
CC(C)(C(=O)N[C@H]1[C@@H]2CC3C[C@H]1C[C@](O)(C3)C2)S(=O)(=O)c1ccc(Cl)cc1 [Compound 3] | < 1000 | < 1
COC(=O)CC(=O)N[C@@]12CC3C[C@H](C1)[C@H](NC(=O)C(C)(C)Oc1ccc(Cl)cc1C)[C@@H](C3)C2 [Compound 38] | < 1000 | 1 to 10
CC(C)(Oc1cccc(C(F)(F)F)c1)C(=O)N[C@H]1[C@@H]2CC3C[C@H]1C[C@](N)(C3)C2 [Compound 81] | < 1000 | > 10
Cc1cc(Cl)ccc1OC(C)(C)C(=O)N[C@H]1[C@@H]2CC3C[C@H]1C[C@](NS(=O)(=O)N(C)C)(C3)C2 [Compound 30] | < 1000 | 1 to 10
COC(=O)c1cccc(NC(C)(C)C(=O)N[C@H]2[C@@H]3CC4C[C@H]2C[C@](O)(C4)C3)c1 [Compound 75] | < 1000 | > 10
COc1ccc(NC(C)(C)C(=O)N[C@H]2[C@@H]3CC4C[C@H]2C[C@](NC(C)=O)(C4)C3)cc1 [Compound 76] | < 1000 | > 10
CC(C)(Oc1cccc(C(F)(F)F)c1)C(=O)N[C@H]1[C@@H]2CC3C[C@H]1C[C@](NS(C)(=O)=O)(C3)C2 [Compound 83] | < 1000 | 1 to 10
Cc1cc(Cl)ccc1OC(C)(C)C(=O)N[C@H]1[C@@H]2CC3C[C@H]1C[C@](NC(=O)CN(C)CCO)(C3)C2 [Compound 42] | < 1000 | 1 to 10
COc1cccc(NC(C)(C)C(=O)N[C@H]2[C@@H]3CC4C[C@H]2C[C@](NC(C)=O)(C4)C3)c1 [Compound 66] | < 1000 | 1 to 10
Cc1cc(Cl)ccc1OC(C)(C)C(=O)N[C@H]1[C@@H]2CC3C[C@H]1C[C@](N(C)C)(C3)C2 [Compound 46] | < 1000 | > 10
Cc1ccc(OC(C)(C)C(=O)N[C@@H]2[C@@H]3CC4C[C@H]2C[C@](OCc2ccccc2)(C4)C3)cc1 [Compound 48] | < 1000 | < 1
Cc1cc(Cl)ccc1OC(C)(C)C(=O)N[C@H]1[C@@H]2CC3C[C@H]1C[C@](N1CCCC1=O)(C3)C2 [Compound 39] | < 1000 | < 1
CN(C)CCCO[C@@]12CC3C[C@H](C1)[C@H](NC(=O)C(C)(C)Oc1cccc(Cl)c1)[C@@H](C3)C2 [Compound 44] | < 1000 | 1 to 10
Cc1cc(Cl)ccc1OC(C)(C)C(=O)N[C@H]1[C@@H]2CC3C[C@H]1C[C@](N1CCC(C)C1=O)(C3)C2 (some centres unmarked) [Compound 91] | < 1000 | < 1
CN1CC(C(=O)N[C@@H]2[C@@H]3CC4C[C@H]2C[C@@](O)(C4)C3)Oc2ccccc21 (some centres unmarked) [Compound 6] | < 1000 | > 10
COc1ccc(NC(C)(C)C(=O)N[C@H]2[C@@H]3CC4C[C@H]2C[C@](F)(C4)C3)cc1 [Compound 59] | < 1000 | > 10
CN(C)S(=O)(=O)N[C@@]12CC3C[C@H](C1)[C@H](NC(=O)C(C)(C)Oc1cccc(C(F)(F)F)c1)[C@@H](C3)C2 [Compound 92] | < 1000 | 1 to 10
Cc1cc(Cl)ccc1OC(C)(C)C(=O)N[C@H]1[C@@H]2CC3C[C@H]1C[C@](NC(=O)CN1CCOCC1)(C3)C2 [Compound 73] | < 1000 | 1 to 10
CC(C)(Oc1ccc(Cl)cc1)C(=O)N[C@H]1[C@@H]2CC3C[C@H]1C[C@](NC(=O)CCl)(C3)C2 [Compound 94] | < 1000 | 1 to 10

Results, then the compound that gave them:

IC50 (11β-HSD1) [nM] | IC50 (11β-HSD2) [µM] | SMILES
< 1000 | > 10 | CC(C)(Oc1cccc(Cl)c1)C(=O)N[C@H]1[C@@H]2CC3C[C@H]1C[C@](N)(C3)C2 [Compound 85]
< 1000 | 1 to 10 | COc1cc(OC)cc(OC(C)(C)C(=O)N[C@H]2[C@@H]3CC4C[C@H]2C[C@](O)(C4)C3)c1 [Compound 17]
< 1000 | 1 to 10 | CC(C)(Oc1ccc(Cl)cc1)C(=O)N[C@H]1[C@@H]2CC3C[C@H]1C[C@](O)(C3)C2 [Compound 67]
< 1000 | < 1 | Cc1cc(C)cc(OC(C)(C)C(=O)N[C@H]2[C@@H]3CC4C[C@H]2C[C@](O)(C4)C3)c1 [Compound 16]
< 1000 | < 1 | Cc1ccccc1OC(C)(C)C(=O)N[C@H]1[C@@H]2CC3C[C@H]1C[C@](O)(C3)C2 [Compound 12]
< 1000 | < 1 | Cc1cc(Cl)ccc1OC(C)(C)C(=O)N[C@H]1[C@@H]2CC3C[C@H]1C[C@](O)(C3)C2 [Compound 1]
< 1000 | < 1 | CC(C)(Oc1cccc(Cl)c1)C(=O)N[C@H]1[C@@H]2CC3C[C@H]1C[C@](O)(C3)C2 [Compound 43]
< 1000 | < 1 | Cc1ccc(OC(C)(C)C(=O)N[C@H]2[C@@H]3CC4C[C@H]2C[C@](O)(C4)C3)cc1 [Compound 13]
< 1000 | > 10 | COc1cccc(NC(C)(C)C(=O)N[C@H]2[C@@H]3CC4C[C@H]2C[C@](O)(C4)C3)c1 [Compound 53]
< 1000 | > 10 | Cc1cc(Cl)ccc1OC(C)(C)C(=O)N[C@H]1[C@@H]2CC3C[C@H]1C[C@](N)(C3)C2 [Compound 32]
< 1000 | < 1 | COc1cccc(OC(C)(C)C(=O)N[C@H]2[C@@H]3CC4C[C@H]2C[C@](O)(C4)C3)c1 [Compound 14]
< 1000 | > 10 | Cc1cc(C)cc(OC(C)(C)C(=O)NC2C3CC4CC(C3)CC2C4)c1 (centres unmarked) [Compound 2]
< 1000 | > 10 | Cc1ccc(NC(C)(C)C(=O)N[C@H]2[C@@H]3CC4C[C@H]2C[C@](O)(C4)C3)cc1 [Compound 27]
< 1000 | > 10 | Cc1cccc(NC(C)(C)C(=O)N[C@H]2[C@@H]3CC4C[C@H]2C[C@](O)(C4)C3)c1 [Compound 55]
